From patent US20230129036A1, “AVENANTHRAMIDE COMPOSITIONS WITH IMPROVED SOLUBILITY COMPRISING 4-HYDROXYPHENONE” (priority 2020, published 2023)
Each block holds one molecule with its values, some of them ahead of it.

What was measured:
[1] = Avn C, followed by Avn B and Avn A; cited from earlier work
[2] = Solubility / appearance of avenanthramide solutions with and without 4-hydroxyacetophenone, evaluated at 22° C.; format: physicochemical
Method: The solubility of avenanthramides A, B, C, D or L and Dihydroavenanthramide D in solution in combination with 4-hydroxyacetophenone in different concentrations was evaluated against a solution of avenanthram ides A, B, C, D and L without 4-hydroxyacetophenone.
The corresponding avenanthramides were presolved in ethanol or glycol. Water and 4-hydroxyacetophenone were added under stirring and heating up the solution to 60° C. The appearance of the solutions was evaluated at 22° C. according to the following Table 1: […]

[3] = addition of 4-hydroxyacetophenone in concentration of 0.1 or 0.5 wt % (Table 3, Table 4 b)

SMILES: O=C(C=Cc1ccc(O)c(O)c1)Nc1ccc(O)cc1C(=O)O [Avenanthramide C, N-(3′-4′-dihydroxycinnamoyl)-5-hydroxyanthranilic acid]
Antioxidant activity, ranking among Avns [1]: highest activity

Appearance of solution ([2]; 4-hydroxyacetophenone concentration increased to 0.5% as in Table 4 b): clear solution
Effect of addition of 4-hydroxyacetophenone on solubility / appearance ([2]; versus solution without 4-hydroxyacetophenone, increasing concentration): improved
SMILES: O=C(/C=C/C=C/c1ccc(O)cc1)Nc1ccc(O)cc1C(=O)O [Avenanthramide L]
Appearance of solution [2, 3]: clear solutions without turbidity or precipitation

SMILES: O=C(CCc1ccc(O)cc1)Nc1ccccc1C(=O)O [Dihydroavenanthramide D, 2-[(3-(4-hydroxyphenyl)propanoyl]amido)benzoic acid]
Appearance of solution ([2]; addition of 4-hydroxyacetophenone in concentrations of 0.5 to 1.0% (Tables 7 a and 7 b)): clear solutions withouts turbidity or precipitation

Effect of 4-hydroxyacetophenone on solubility ([2]; 4-hydroxyacetophenone 0.01 wt %): improves the solubility
SMILES: O=C(C=Cc1ccc(O)cc1)Nc1ccc(O)cc1C(=O)O [Avenanthramide A, N-(4′-hydroxycinnamoyl)-5-hydroxyanthranilic acid]
Appearance of solution [2, 3]: clear solutions without turbidity or precipitation
